From patent US20240306682A1, “Process for providing a combination of fermented seaweed and/or algae and plant material selected from the family Fabaceae” (FERMENTATIONEXPERTS A/S, priority 2020, published 2024)

Test system: salmons
Assay: Fish feeding experiment, fillet colour by SalmoFan color measurement scale
Type: in vivo
Conditions: salmon fillets, supplement in basic fish feed (50 mg astaxanthin/kg or 15% (w/w) fermented composition), fed for 8 weeks
Method: The colour intensity of a salmonoid fillets according to the present invention may be determined by the SalmoFan™ color measurement scale. The SalmoFan™ color measurement scale has been developed by DSM and may be determined physically, using visual inspection applying a colour scale, or by digitally determination, using a colour sensor to determine the colour intensity. Fish feeding experiment using the following feed are performed: • (1) A basic fish feed comprising 50 mg chemically produced astaxanthin/kg basic fish feed; • (2) A basic fish feed comprising 15% (w/w) of a fermented composition comprising 99% fermented rapeseed meal and 1% fermented seaweed; and • (3) A basic fish feed comprising 15% (w/w) of a fermented composition as provided in Example 1, comprising 93% fermented soymeal, 6% fermented rapeseed meal and 1% fermented seaweed. 3 ponds with each 10 salmons of about 3 kg per salmon was fed with the above-mentioned basic fish feed, including supplement (1), (2) or (3), in the stated concentrations, for a period of 8 weeks. After the […] weeks the salmons were harvested, gutted and filleted and the colour of the fillets was determined by the SalmoFan™ color measurement scale.

For `CC1=C(/C=C/C(C)=C/C=C/C(C)=C/C=C/C=C(C)/C=C/C=C(C)/C=C/C2=C(C)C(=O)[C@@H](O)CC2(C)C)C(C)(C)C[C@H](O)C1=O` [supplement 1, astaxanthin], the Colour intensity was 23-23.
